Measured values taken from US9402925B2, “Probes and methods of imaging a bacterial infection” (The Board of Trustees of the Leland Stanford Junior …, priority 2013, dated 2016).
“Also recorded” adds a separate entry of the source. Where two headings read alike, the source gives them in different places.

Assays:
[1] = tested on: Escherichia coli; experiment: Competition assay: blocking of 3H-maltose uptake by E. coli; type: cell-based; conditions: co-incubation, 1 mM; 3H-labeled maltose uptake for 10 mins; FIG. 2.4
Protocol: Coli and a mammalian cell line (EL4) were exposed to [^18F] 7. […] 7 by E. […] The uptake in E. Coli could also be blocked by co-incubation with 1 mM of cold maltose (98% blocking, p<0.0003), the natural substrate of the transporter. […] Here we allowed bacteria to take up ^3H-labeled maltose for 10 mins.

[2] = tested on: E-.Coli (ATCC33456); experiment: Competition assay: blocking of 18F-fluoromaltose uptake in E. coli by co-incubation; type: cell-based, Escherichia coli; conditions: co-incubation with 1 mM
Protocol: (§1) A strain of E-.Coli (ATCC33456) and a mammalian cell line (EL4) were exposed to 1-[^18F]-fluoromaltose or [^18F]-6-fluoromaltose. All bacteria and cells were then washed in 1×PBS, lysed and radioactivity of each well was determined by gamma counter for ^18F samples. All results were done in triplicate and are expressed in counts per minute (CPM), standard errors were determined and t tests performed. The uptake in E. Coli could also be blocked by co-incubation with 1 mM of cold maltose or 1 mM of 1-fluoromaltose.
(§2) To evaluate the ability of bacteria and cells to uptake [^18F]-6-fluoromaltose (7) and 1-[^18F]-fluoromaltose (11), a strain of E. Coli and a mammalian cell line (EL4) were exposed to 7 and 11. […] The uptake in E. Coli could also be blocked by co-incubation with 1 mM of cold maltose (98% blocking, p<0.0003), the natural substrate of the transporter. Likewise, ^3H-maltose uptake in E. Coli was blocked both with 1 mM maltose and 1-fluoromaltose (FIG. 2.4).

[3] = tested on: mammalian cell line (EL4); experiment: In vitro uptake assay in mammalian cell line EL4; type: cell-based; conditions: 60 minutes post incubation with tracer
Protocol: as §1, §2

[4] = PBS, human and mouse serum at 37° C.
Protocol: Serum (human or mouse) was centrifuged at about 4° C., maximum speed for about 10 min. About 330 μL of supernatant was transferred to an Eppendorf vial containing 20 μL of formulated radiolabelled 6-[^18F]fluoromaltose (50-100 μCi minimum). For control, same volume of radiolabelled compound in 330 μl PBS was used. After vortexing the radiolabelled mixtures, 70 μL aliquots transferred to Eppendorf tubes and incubated at about 37° C. At predetermine time points (e.g., 0, 5, 15, 30, 60 min) 140 μL of ice-cold methanol were added to corresponding samples to stop metabolism. After vortexing and centrifuging samples (10 min max speed), the supernatants were transferred to HPLC vials for HPLC analysis.
The percentage of intact 6-[^18F]fluoromaltose in PBS, human and mouse serum at 37° C. was determined by HPLC.

[5] = tested on: E-.Coli (ATCC33456); experiment: In vitro uptake assay in E. coli; type: cell-based, Escherichia coli; conditions: radioactivity by gamma counter, CPM, FIG. 2.3
Protocol: as §1, §2

[6] = In vivo stability of 1-[18F]fluoromaltose

## OC[C@H]1O[C@H](O[C@H]2[C@H](O)[C@@H](O)C(O)O[C@@H]2CO)[C@H](O)[C@@H](O)[C@@H]1O (mixture of isomers) [maltose]
[1]
  blocking of 3H-maltose uptake in E. Coli: completely blocked; also recorded: effectively compete
[2]
  blocking of 18F-fluoromaltose uptake in E. Coli: completely blocked
[2]; p<0.0003
  blocking of [18F]-6-fluoromaltose uptake in E. Coli: 98%

## OC[C@H]1O[C@H](O[C@H]2[C@H](O)[C@@H](O)C(F)O[C@@H]2CO)[C@H](O)[C@@H](O)[C@@H]1O (stereo partly drawn) [1-fluoromaltose]
[1]
  blocking of 3H-maltose uptake in E. Coli: completely blocked; also recorded: effectively compete
[2]
  blocking of 18F-fluoromaltose uptake in E. Coli: blocked

## OC[C@H]1O[C@H](O[C@H]2[C@H](O)[C@@H](O)C(O)O[C@@H]2C[18F])[C@H](O)[C@@H](O)[C@@H]1O (stereo partly drawn) [6-[^18F]-fluoromaltose, 4-O-(α-D-glucopyranosyl)-6-deoxy-6-[^18F]-fluoro-D-glucopyranoside]
[3]
  uptake by mammalian cell line (EL4): minimal
[4]; 1 h
  percentage intact 6-[18F]fluoromaltose: ~96%
[4]; 2 h
  percentage intact 6-[18F]fluoromaltose: ~65%
[5]
  uptake by E. Coli: take up
[5]; listed as [^18F]-6-fluoromaltose
  uptake by E. Coli: time dependent

## OC[C@H]1O[C@H](O[C@H]2[C@H](O)[C@@H](O)C([18F])O[C@@H]2CO)[C@H](O)[C@@H](O)[C@@H]1O (stereo partly drawn) [1-[^18F]-fluoromaltose, 4-O-(α-D-glucopyranosyl)-1-deoxy-1-[^18F]-fluoro-D-glucopyranoside]
[6]
  stability in vivo (de-fluorination): not stable in vivo and very fast de-fluorinated
[6]; after de-fluorination
  uptake of [18F]fluoride ion by the bones: very high
